# Patent publication US20090076029A1 (Palatin Technologies, Inc., priority 2007, published 2009)
# “And” between values parts separate entries of the source, which are not always exact repeats. Equal entries are not always repeated. Where two headings read alike, the source gives them in different places.
# Tests used:
# [1] = tested on: T1, hMC4-R; test: cAMP functional assay in HEK-293 cells expressing MC4-R (agonist, neutral antagonist/Schild); format: cell-based, human; conditions: for intrinsic activity at MC4-R: NDP-α-MSH maximal stimulation = 1.0; for functional status at MC4-R: mostly at 1 μM
# T1 construct: expressed in transfected cells; host or cells: HEK-293
# Protocol: General method for EC50 determination in functional activity assay. Functional evaluation of compounds at melanocortin receptors was performed by measuring the accumulation of intracellular cAMP in HEK-293 cells expressing hMC3-R, hMC4-R or hMC5-R, and in B-16 mouse melanoma cells expressing MC1-R. Cells suspended in Earle's Balanced Salt Solution containing 10 mM HEPES (pH 7.5), 5 mM MgCl2, 1 mM glutamine, 0.1% albumin and 0.6 mM 3-isobutyl-1-methyl-xanthine, a phosphodiesterase inhibitor, were plated in 96 well plates at a density of 0.5×10^5 cells per well. Cells were incubated with the test compounds in the presence or absence of α-MSH for 1 hour at 37° C. cAMP levels in the cell lysates were measured using an EIA kit (Amersham). Data analysis and EC50 values were determined using nonlinear regression analysis with Prism Graph-Pad software.
# Functional status. The agonist/antagonist status with respect to MC1-R, MC-3R, MC4-R and MC5-R of certain compounds of the invention was determined.
# Assay for agonist. Evaluation of the molecules to elicit a functional response in HEK-293 cells expressing MC4-R was accomplished by measuring the accumulation of intracellular cAMP following treatment. Confluent HEK-293 cells expressing MC4-R were detached by enzyme free cell suspension buffer. Cells were suspended in Earle's Balanced Salt Solution containing 10 mM HEPES (pH 7.5), 1 mM MgCl2, 1 mM glutamine, 0.5% albumin and 0.3 mM 3-isobutyl-1-methyl-xanthine (IBMX), a phosphodiesterase inhibitor. The cells were plated in 96 well plates at a density of 0.5×10^5 cells per well and pre-incubated for 30 minutes. The cells were then challenged with the test compounds dissolved in DMSO at a concentration range of 0.05-5000 nM in a total assay volume of 200 μL for 1 hour at 37° C. The concentration of DMSO was always held at 1% in the assay mixture. NDP-α-MSH was used as the reference agonist. At the end of the incubation period the cells were disrupted by the addition of 50 μL of lysis buffer from a cAMP EIA kit (Amersham). Complete rupture of the cells was obtained by pipetting the cells multiple times. cAMP levels in the cell lysates were measured after appropriate dilution using the EIA kit (Amersham) method. Data analysis and EC50 values were determined by using nonlinear regression analysis with Prism Graph-Pad software. […] FIG. 1 illustrates typical results, showing the stimulation of cAMP using the compound of Example 11 in HEK-293/MC4-R cells with comparison to NDP-α-MSH.
# Assay for Neutral Antagonist. Compounds with a high affinity for binding to MC4-R membranes but with less potency in terms of cAMP accumulation (EC50>1000 nM) and low response ratio (<0.1) were analyzed for their ability to antagonize the stimulatory effect of the agonist NDP-α-MSH. These studies were carried out in HEK-293 cells expressing MC4-R. Cells were incubated with the compounds in the presence of the agonist NDP-α-MSH and the extent of antagonism was measured by the decrease in intracellular cAMP concentrations. Screening the compounds for antagonist activity was performed at a single concentration of NDP-α-MSH (1.0 nM) over a compound concentration range of 0.5-5000 nM.
# Experimental details were similar to the analysis for agonistic activity described above. Briefly, cells were pre-incubated for 30 minutes with the test compounds at concentrations between 0.5 nM and 5000 nM. The cells were then stimulated with NDP-α-MSH at a concentration of 1 nM for 1 hour. For Schild's analysis, the interactions were studied using at least 3 concentrations of the compounds, separated by a log unit, over a full range of the agonist (0.005-5000 nM). cAMP levels were measured in the cell lysates after appropriate dilution. Nonlinear regression analysis with Prism Graph-Pad software was used for Schild analysis and to obtain EC50 values. pA2 values were derived from the Schild plot of the data.
# [2] = target: T2, MC1-R; test: Competitive inhibition assay using [I125]-NDP-α-MSH, MC1-R membranes; format: binding, mouse; conditions: for Inhibition at 1 μM (NDP-α-MSH) MC1-R: 1 μM compound
# T2 construct: other: 1 μM compound
# Protocol: (§1) Competitive inhibition assay using [1125]-NDP-α-MSH. A competitive inhibition binding assay was conducted using membranes prepared from HEK-293 cells transfected to express hMC3-R, hMC4-R or hMC5-R, and from B-16 mouse melanoma cells (containing MC1-R) using 0.2 to 0.4 nM [I^125]-NDP-α-MSH (New England Nuclear) in 50 mM HEPES buffer containing 1 mM MgCl2, 2 mM CaCl2, and 5 mM KCl, at pH 7.2. In certain experiments, HEK-293 cells transfected to express hMC1-R were also employed. The assay tube also contained a chosen concentration of the test compound of this invention, typically a 1 μM concentration, for determining inhibition of the binding of [^1125]-NDP-α-MSH to its receptor. Non-specific binding was measured by inhibition of binding of [I^125]-NDP-α-MSH in the assay with the presence of 1 μM α-MSH.
# (§2) The assay mixture was incubated for 90 minutes at room temperature, then filtered and the membranes washed three times with ice cold buffer. The filter was dried and counted in a gamma counter for remaining radioactivity bound to the membranes. 100% specific binding was defined as the difference in radioactivity (cpm) bound to cell membranes in the absence and presence of 1 μM α-MSH. The cpm obtained in presence of test compounds were normalized with respect to 100% specific binding to determine the percent inhibition of [125]-NDP-α-MSH binding. Each assay was conducted in triplicate and the actual mean values are described, with results less than 0% reported as 0%.
# [3] = target: T3, hMC3-R; test: Competitive inhibition assay using [I125]-NDP-α-MSH, hMC3-R membranes; format: binding, human; conditions: read-out: Ki (nM) (NDP-α-MSH) MC3-R
# T3 construct: expressed in transfected cells; host or cells: HEK-293
# Protocol: as §1, §2
# [4] = tested on: T1, hMC4-R; test: Competitive inhibition assay using [I125]-NDP-α-MSH, hMC4-R membranes; format: binding, human; conditions: for attenuation of binding of α-MSH and AgRP to MC4-R: both ligands (NDP-α-MSH and AgRP), summary
# Protocol: as §1, §2
# [5] = tested on: T1, hMC4-R; format: binding, human; conditions: for Inhibition at 1 μM (AgRP) MC4-R: 1 μM compound
# Protocol: Competitive binding assay using [I^125]-AgRP (83-132). Competitive binding studies using [I^125]-AgRP (83-132) were carried out on membranes isolated from cells expressing hMC4-R. The assay was performed in 96 well GF/B Millipore multiscreen filtration plates (MAFB NOB10) pre-coated with 0.5% bovine serum albumin (Fraction V). The assay mixture contained 25 mM HEPES buffer (pH 7.5) with 100 mM NaCl, 2 mM CaCl2, 2 mM MgCl2, 0.3 mM 1,10-phenanthroline, 0.5% bovine serum albumin, cell membranes, radioligand [I^125]-AgRP (83-132) (NEN), and increasing concentrations of compounds in a total volume of 200 μL. Binding was measured at radioligand concentrations of 0.2 nM. After incubating for 1 hour at 37° C., the reaction mixture was filtered and washed with an assay buffer containing 500 mM NaCl. The dried discs were punched out from the plate and counted on a gamma counter. Care was taken to limit the specific binding of the ligand to an amount not exceeding 10% of the counts added to the reaction mixture. Data were analyzed using the Prism Graph-Pad curve fitting software.
# [6] = cAMP assay, read-out: EC50 (nM) at MC4-R
# [7] = MC4-R membranes, Table 1, read-out: Ki (nM) I125-AgRP
Molecule,"functional status (pAg, Ag, Antag, Inactive) ([1]; MC4-R, Table 1)","EC50 ([1]; MC4-R, Table 1, read-out: EC50) [nM]",intrinsic activity at MC4-R [1],"EC50 [1, 6] [nM]",Ki [2] [nM],Inhibition at 1 μM (NDP-α-MSH) MC1-R [2] [%],Ki [3] [nM],attenuation of binding of α-MSH and AgRP to MC4-R [4],Inhibition at 1 μM (AgRP) MC4-R [5] [%],"Ki [5, 7] [nM]",Ki ([5]; read-out: Ki (nM) (AgRP) MC4-R),functional status at MC4-R ([1]; cAMP assay),"Ki ([4]; MC4-R membranes, Table 1, read-out: Ki (nM) I125-NPD-α-MSH) [nM]","EC50 ([1]; MC4-R, Table 1 in μM, read-out: EC50) [nM]","EC50 ([1]; cAMP assay, printed in μm, read-out: EC50 at MC4-R) [nM]"
"NCCCC[C@H]1C(=O)N(CCc2ccc3ccccc3c2)CCN1C(=O)[C@@H](Cc1ccc(Cl)cc1Cl)NC(=O)[C@@H]1CC[C@H](c2ccccc2)N1 [Example 19, (2S,5R)-5-Phenyl-pyrrolidine-2-carboxylic acid [(R)-2-[(S)-2-(4-amino-butyl)-4-(2-naphthalen-2-yl-ethyl)-3-oxo-piperazin-1-yl]-1-(2,4-dichloro-benzyl)-2-oxo-ethyl]-amide]",pAg (“pAg” means partial agonist),959,0.19 and 0.2,959,1370,0,855,attenuate the binding of both α-MSH and AgRP to MC4-R,95,63,63,–,–,–,–
"N=C(N)NCCC[C@H]1C(=O)N2C(CC[C@@H]2COc2ccc3ccccc3c2)N1C(=O)[C@@H](Cc1ccc(Cl)cc1Cl)NC(=O)[C@@H]1CC[C@H](c2ccccc2)N1 (stereo partly drawn) [Example 20, (2S,5R)-5-Phenyl-pyrrolidine-2-carboxylic acid {(R)-1-(2,4-dichloro-benzyl)-2-[(2S,5R)-2-(3-guanidino-propyl)-5-(naphthalen-2-yloxymethyl)-3-oxo-hexahydro-pyrrolo[1,2-a]imidazol-1-yl]-2-oxo-ethyl}-amide]",Inactive,> 1000,–,–,1040,16,312,–,99,23,23,inactive,–,–,–
"NCCCC[C@H]1C(=O)N(CCc2ccc3ccccc3c2)CCN1C(=O)[C@@H](Cc1ccc(Cl)cc1Cl)NC(=O)c1ccc(Oc2ccccc2)cc1 [Example 22, N—[(R)-2-[(S)-2-(4-Amino-butyl)-4-(2-naphthalen-2-yl-ethyl)-3-oxo-piperazin-1-yl]-1-(2,4-dichloro-benzyl)-2-oxo-ethyl]-4-phenoxy-benzamide]",Inactive,> 1000,–,–,–,–,–,–,100,0.9,0.9,inactive,–,–,–
"Cc1cc(Cl)ccc1C[C@@H](N)C(=O)N1C[C@@H](C)N(CCc2ccc3ccccc3c2)C[C@@H]1CCCNC(=N)N [Example 27, N-{3-[1-[2(R)-Amino-3-(2-methyl, 4-chloro-phenyl)-propionyl]-5(R)-methyl-4-(2-naphthaen-2-yl-ethy)-piperazin-2(S)-yl]-propyl}-guanidine]",pAg (“pAg” means partial agonist),214,0.3,214,–,–,–,–,–,–,–,partial agonist (intrinsic activity between 0.1 (10%) and 0.7 (70%) is classified as a partial agonist),29,–,–
"C[C@@H]1CN(C(=O)[C@H](N)Cc2ccc(Cl)cc2)[C@@H](CCCNC(=N)N)CN1CCc1ccc2ccccc2c1 [Example 29, N-{3-[1-[2(R)-Amino-3-(4-CHLORO-phenyl)-propionyl]-5(R)-methyl-4-(2-naphthalen-2-yl-ethyl)-piperazin-2(S)-yl]-propyl}-guanidine]",Ag,252,0.8,252,–,–,–,attenuate the binding of both α-MSH and AgRP to MC4-R,97,–,15,agonist (intrinsic activity of 0.7 (70%) or higher is classified as an agonist),–,–,–
NH2—(CH2)6—C(═O)-Ser(Bzl)-D-Phe(4-Cl)-Arg-Trp-Ala-NH2 [Example 16],–,–,–,–,142,60,35,–,–,–,–,functionally inactive,–,> 1000,> 1000
